Source: patent US10035810B2, “5,6-dihydro-4H-benzo[b]thieno-[2,3-d]azepine derivative” (PULMOCIDE LIMITED, priority 2014, dated 2018)

How the values were obtained:
RSV A2 = experiment: RSV infection in mice: virus titre in lung homogenate (plaque assay); type: in vivo, mice (male BALB/C); conditions: RSV A2 infected mice
Protocol: Non-fasted mice (male BALB/C, 20-30 g) were infected intranasally with RSV A2 or virus diluent (DMEM, 2% FBS, 12.5% sucrose) under isoflurane (5% in O2) anaesthesia. The A2 strain of RSV (50 uL of 1.3×10^6 PFU/mL: final 0.65×10^5 PFU/mouse) was instilled into each nostril in a drop wise fashion alternating between the two until a volume of 50 μL was delivered. Following infection each animal was weighed on a daily basis to monitor changes. Compound (I) was dissolved in 100% DMSO (at 20 mg/mL and/or 2 mg/mL), then diluted at 1:10 in isotonic saline to achieve 10% DMSO in all treatments. Formulations were then sonicated to produce a suspension. The suspension was administered intratracheally (20 μL) with a FMJ-250 PennCentury device or intranasally (40 μL) with a pipette on 1 day and 1 hr before infection (day 0), and then on days 1, 2 and 3 post infection. Four days after RSV challenge, the animals were euthanised (by intraperitoneal injection of a pentobarbitone overdose), the trachea cannulated and BALF extracted for total and differential cell counts. […]
Anti-RSV F-protein antibody [2F7] […] Plaques were counted by eye and confirmed using light microscopy, allowing the calculation of plaque forming units per mL of lung homogenate supernatant.

RANTES gene transcript = experiment: RSV infection in cotton rats: RANTES gene transcript in lung (qRT-PCR); type: in vivo, cotton rats (Sigmodon hispidus); conditions: for RANTES gene transcript % inhibition / RANTES gene transcript (/β-actin), Median: cotton rats, lung, intranasal
Protocol: RSV Infection in Cotton Rats
Male Sigmodon hispidus cotton rats between 6 and 8 weeks of age were infected with hRSV/A/Long (ATCC, Manassas, Va.; 10^5 pfu) in a volume of 0.1 mL of sucrose stabilizing media. Compound (I) was dissolved in 100% DMSO (at 3.3, 10, 33 and 100 mg/mL), then diluted at 1:10 in isotonic saline to achieve 10% DMSO in all treatments. Formulations were then sonicated to produce suspensions. The resulting suspensions were administered intranasally (50 μL) by pipette 4 hr before infection (on day 0), and then on days 1, 2 and 3 post infection. Four days after RSV challenge, the animals were euthanised and the lungs were removed. The left lobe was used for viral titration via plaque assay and the lingular lobe for RSV/A/Long NS-1 qRT-PCR and cytokine qRT-PCR.
Total RNA was also extracted from homogenized lung tissue (RNeasy purification kit; Qiagen) and a sample (1 μg) was used to prepare cDNA using QuantiTect Reverse Transcription Kit (Qiagen). For real-time PCR reactions (RSV NS-1 and RANTES genes) the QuantiFast SYBR® Green PCR Kit (Qiagen) was used in a final volume of 25 μL, with final primer concentrations of 0.5 μM. Amplifications were performed on a Bio-Rad iCycler for 1 cycle of 95° C. for 3 min, followed by 40 cycles of 95° C. for 10 sec, 60° C. for 10 sec, and 72° C. for 15 sec. Baseline cycles and cycle threshold (Ct) were calculated by the iQ5 software in the PCR Base Line Subtracted Curve Fit mode. The standard curves were developed using serially diluted cDNA sample most enriched in the transcript of interest (e.g., lungs from day 4 post-primary RSV infection). The Ct values were plotted against login cDNA dilution factor. These curves were used to convert the Ct values obtained for different samples to relative expression units which were then normalized to the level of β-actin mRNA (“housekeeping gene”) expressed in the corresponding sample. The mRNA levels were expressed as the geometric mean±SEM for all animals in a group.

In the case of `Cc1cnc(N2CC3(CCOCC3)C2)c(C(=O)Nc2ccc(C(=O)N3CCc4cc(C(=O)Nc5c(C)cccc5F)sc4-c4ccccc43)cc2)c1` [Compound (I), N-(2-fluoro-6-methylphenyl)-6-(4-(5-methyl-2-(7-oxa-2-azaspiro[3.5]nonan-2-yl)nicotinamido)benzoyl)-5,6-dihydro-4H-benzo[b]thieno[2,3-d]azepine-2-carboxamide], the “Virus titre in the lungs (in words)” value (RSV A2) is reported as “completely inhibited virus titre”, the “Viral titre in lung homogenates (in words)” value (RSV A2; intranasally or intratracheally) is reported as “potent dose-dependent inhibition of viral titre” and the “RANTES gene transcript % inhibition” value (RANTES gene transcript; 0.33 mg/mL) is reported as 28%. For the same molecule, the “RANTES gene transcript (/β-actin), Median” value (RANTES gene transcript; 0.33 mg/mL) was 0.21 /β-actin, the “RANTES gene transcript % inhibition” value (RANTES gene transcript; 1.0 mg/mL) was 45% and the “RANTES gene transcript (/β-actin), Median” value (RANTES gene transcript; 1.0 mg/mL) was 0.16 /β-actin. The “RANTES gene transcript % inhibition” value (RANTES gene transcript; 3.3 mg/mL) was 62%, the “RANTES gene transcript (/β-actin), Median” value (RANTES gene transcript; 3.3 mg/mL) was 0.11 /β-actin and the “RANTES gene transcript % inhibition” value (RANTES gene transcript; 10 mg/mL) was 55%. For the same molecule, the “RANTES gene transcript (/β-actin), Median” value (RANTES gene transcript; 10 mg/mL) was 0.13 /β-actin and the “RANTES transcripts in lung (in words)” value (RANTES gene transcript; infected cotton rats) was “dose-dependent inhibition”.
